# Reference: ChEMBL document CHEMBL5352465, “Small molecules containing chalcogen elements (S, Se, Te) as new warhead to fight neglected tropical diseases” (Eur J Med Chem, 2023)
# Assays:
# [1] = Selectivity index, ratio of LC50 for human U-937 cells to ratio of IC50 for antileishmanial activity against Leishmania panamensis MHOM/CO/87/UA140-EpiR-GFP strain promastigotes; type: toxicity; conditions: read-out: Ratio LC50/IC50
# Leishmania panamensis [2] = experiment: Antileishmanial activity against Leishmania panamensis MHOM/CO/87/UA140-EpiR-GFP strain amastigotes assessed as inhibition of parasite growth incubated for 72 hrs by flow cytometric analysis; type: functional, organism-based
# [3] = Selectivity index, ratio of CC50 for cytotoxicity against Swiss mouse peritoneal macrophages to IC50 for antitrypanosomal activity against bloodstream Trypanosoma cruzi Y strain trypomastigotes; type: toxicity; conditions: read-out: Ratio CC50/IC50
# Trypanosoma cruzi [4] = experiment: Antitrypanosomal activity against bloodstream Trypanosoma cruzi Y strain trypomastigotes assessed as parasite growth inhibition incubated for 24 hrs by Neubauer chamber based light microscopic analysis; type: functional, organism-based
# Trypanosoma brucei [5] = experiment: Antitrypanosomal activity against bloodstream Trypanosoma brucei 427 strain assessed as parasite growth inhibition measured after 24 hrs by propidium iodide staining based flow cytometer method; type: functional, organism-based; conditions: Trypanosoma brucei, 427, 24 h
# Trypanosoma cruzi [6] = experiment: Antitrypanosomal activity against bloodstream Trypanosoma cruzi Y strain trypomastigotes assessed as parasite growth inhibition incubated for 24 hrs by light microscopic analysis; type: functional, organism-based
# Trypanosoma cruzi [7] = experiment: Antitrypanosomal activity against Trypanosoma cruzi Tulahuen strain trypomastigotes assessed as parasite growth inhibition incubated for 18 hrs by light microscopic analysis; type: functional
# Leishmania tropica = experiment: Antileishmanial activity against Leishmania tropica promastigotes assessed as inhibition of parasite growth; type: functional, organism-based
# Leishmania infantum = experiment: Antileishmanial activity against Leishmania infantum promastigotes assessed as reduction in cell viability incubated for 24 hrs by propidium iodide staining based flow cytometry assay; type: functional, organism-based
# [8] = tested on: Trypanosoma brucei gambiense; experiment: Antitrypanosomal activity against bloodstream Trypanosoma brucei gambiense assessed as parasite growth inhibition measured after 72 hrs by resazurin staining based analysis; type: functional, organism-based
# Trypanosoma brucei [9] = experiment: Antitrypanosomal activity against bloodstream Trypanosoma brucei assessed as parasite growth inhibition measured after 72 hrs by resazurin staining based analysis; type: functional, organism-based
# [10] = Selectivity index, ratio of CC50 for rat L6 cells to IC50 for antitrypanosomal activity against bloodstream Trypanosoma brucei gambiense; type: toxicity; conditions: read-out: Ratio CC50/IC50
# [11] = Selectivity index, ratio of CC50 for rat L6 cells to IC50 for antitrypanosomal activity against bloodstream Trypanosoma brucei; type: toxicity; conditions: read-out: Ratio CC50/IC50
# Leishmania braziliensis = experiment: Antileishmanial activity against Leishmania braziliensis promastigotes assessed as inhibition of parasite growth; type: functional, organism-based
# Leishmania amazonensis [12] = experiment: Antileishmanial activity against Leishmania amazonensis promastigotes assessed as inhibition of parasite growth; type: functional, organism-based
# Leishmania amazonensis [13] = experiment: Antileishmanial activity against Leishmania amazonensis amastigotes assessed as inhibition of parasite growth; type: functional, organism-based
# [14] = Selectivity index, ratio of CC50 for human CC cells to ratio of IC50 for antileishmanial activity against Leishmania major promastigote; type: toxicity; conditions: read-out: Ratio CC50/IC50
# Trypanosoma cruzi [15] = experiment: Antitrypanosomal activity against Trypanosoma cruzi epimastigote assessed as parasite growth inhibition by optical density based analysis; type: functional, organism-based
# [16] = biological target: Cruzipain (Trypanosoma cruzi) (UniProt P25779); experiment: Inhibition of Trypanosoma cruzi recombinant Cruzaine using Z-FR-AMC as substrate preincubated for 10 mins followed by substrate addition by fluorimeter analysis
# Chain of Cruzipain (Trypanosoma cruzi) (P25779 123-467 limits assumed): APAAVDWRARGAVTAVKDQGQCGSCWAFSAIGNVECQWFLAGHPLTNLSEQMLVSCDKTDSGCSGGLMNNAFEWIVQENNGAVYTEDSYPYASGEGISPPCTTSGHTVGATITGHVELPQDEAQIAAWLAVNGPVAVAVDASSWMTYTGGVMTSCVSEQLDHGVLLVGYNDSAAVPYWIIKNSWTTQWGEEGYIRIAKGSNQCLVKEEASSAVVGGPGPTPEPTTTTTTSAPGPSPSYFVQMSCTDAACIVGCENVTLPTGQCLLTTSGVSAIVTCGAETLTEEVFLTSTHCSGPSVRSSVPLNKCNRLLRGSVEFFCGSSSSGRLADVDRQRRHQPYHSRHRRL
# Leishmania donovani = experiment: Antileishmanial activity against Leishmania donovani promastigotes assessed as inhibition of parasite growth measured after 24 hrs by Alamar blue based analysis; type: functional, organism-based
# Leishmania aethiopica = experiment: Antileishmanial activity against Leishmania aethiopica amastigotes assessed as inhibition of parasite growth measured after 24 hrs by Alamar blue based analysis; type: functional, organism-based
# [17] = Selectivity index, ratio of CC50 for […] to ratio of IC50 for antileishmanial activity against Leishmania infantum promastigote; type: toxicity, cell-based; conditions: read-out: Ratio CC50/IC50
# Trypanosoma cruzi [18] = experiment: Antitrypanosomal activity against Trypanosoma cruzi Y strain epimastigotes assessed as parasite growth inhibition incubated for 48 hrs by spectrophotometric analysis; type: functional, organism-based
# Leishmania panamensis [19] = experiment: Antileishmanial activity against Leishmania panamensis MHOM/CO/87/UA140-EpiR-GFP strain promastigotes assessed as inhibition of parasite growth incubated for 72 hrs by flow cytometric analysis; type: functional, organism-based
structure (smiles),measurement,setting,value
ClCCN(CCCl)c1nc(Cl)c(C2CC(c3ccc(Br)cc3)=NN2c2ccccc2)s1 (centres undefined),selectivity ratio,[1],1.6
same,IC50,Leishmania panamensis [2],10.9 µM
C(=N\Nc1nnc(-c2ccccn2)s1)/c1ccccn1,selectivity ratio,[3],7.7
same,IC50,Trypanosoma cruzi [4],9.5 µM
CC(=O)OCC1OC([Se][Se]C2O[C@H](COC(C)=O)[C@@H](OC(C)=O)[C@@H](OC(C)=O)[C@H]2OC(C)=O)[C@H](OC(C)=O)[C@@H](OC(C)=O)C1OC(C)=O (some centres undefined),IC50,Trypanosoma brucei [5],2.7 µM
CC(c1cccc2ccccc12)n1cc(CCOc2ccc(-c3ccc(-c4nc5ccc(C(=N)N)cc5[nH]4)s3)cc2)nn1 (centres undefined),IC50,Trypanosoma cruzi [6],3.07 µM
same,IC90,Trypanosoma cruzi [7],7.78 µM
O=C(Nc1nc2cnc(Cl)nc2s1)c1ccc(Cl)cc1Cl,IC50,Leishmania tropica,0.5 µM
CCc1cc(-c2csc(-c3ccc(-n4ccnc4CNCCN)cc3OCCN3CCNC3=O)n2)ccc1-c1ccccc1,IC50,Leishmania infantum,8.6 µM
CCOC(=O)c1ccc(N/C=C2/SC(=O)N(C(Cc3ccccc3)C(=O)OCC)C2=S)cc1 (centres undefined),IC50,[8],0.027 µM
same,IC50,Trypanosoma brucei [9],0.091 µM
same,selectivity ratio,[10],1400
same,selectivity ratio,[11],409
OCCSc1ccnc2cc(Cl)ccc12,IC50,Leishmania braziliensis,> 100 µM
same,IC50,Leishmania amazonensis [12],> 100 µM
Cc1ccc([Te]Cc2ncc(-c3ccc(S(C)(=O)=O)cc3)[se]2)cc1,IC50,Leishmania amazonensis [13],6.14 µM
O=[N+]([O-])c1ccc(-c2nnc(NCCCO)s2)s1,selectivity ratio,[14],14
COc1cc(C2=NN(c3ccccc3)C(c3sc(N(CCCl)CCCl)nc3Cl)C2)cc(OC)c1OC (centres undefined),selectivity ratio,[1],1.48
same,IC50,Leishmania panamensis [2],13.9 µM
NC(=S)N/N=C/c1ccc[nH]1,IC50,Trypanosoma cruzi [15],27 µM
same,inhibition,[16],70%
Cc1ccc(-c2cc(C3CC(c4cccs4)=NN3)n(-c3ccccc3)n2)cc1 (centres undefined),IC50,Leishmania donovani,2.07 µM
same,IC50,Leishmania aethiopica,1.08 µM
O=C1c2ccccc2C(=O)N1Nc1nc(-c2ccc(Cl)cc2Cl)cs1,selectivity ratio,[17],6.4
CCc1cc(-c2csc(-c3ccc(-n4ccnc4CNCCN)cc3OCCN3CCNC3=O)n2)cc2ccccc12,IC50,Leishmania infantum,5.1 µM
NS(=O)(=O)c1ccc(O)c([N+](=O)[O-])c1,IC50,Trypanosoma cruzi [18],97.7 µM
COCCCNc1nnc(-c2ccc([N+](=O)[O-])s2)s1,selectivity ratio,[14],2
O=C1c2ccccc2C(=O)N1Nc1nc(-c2ccc3ccccc3c2)cs1,selectivity ratio,[17],12.5
O=C1C=C(c2ccc(C(F)(F)F)cc2)S(=O)(=O)c2ccc(F)cc21,IC50,Leishmania panamensis [19],3.24 µM
same,IC50,Leishmania panamensis [2],6.72 µM
CC(=O)OCC1O[C@@H](OC(C)=O)[C@H]([Se][Se]C2O[C@H](COC(C)=O)[C@H](OC(C)=O)[C@H](OC(C)=O)[C@H]2OC(C)=O)[C@@H](OC(C)=O)[C@H]1OC(C)=O (some centres undefined),IC50,Trypanosoma brucei [5],3.3 µM
O=C(Nc1nc2cnc(Cl)nc2s1)c1ccc(Cl)cc1,IC50,Leishmania tropica,7.5 µM
CCOC(=O)C(Cc1ccccc1)N1C(=O)S/C(=C/Nc2cc(S(=O)(=O)N3CCOCC3)ccc2C)C1=S (centres undefined),IC50,[8],0.2 µM
same,IC50,Trypanosoma brucei [9],0.679 µM
same,selectivity ratio,[10],> 870
same,selectivity ratio,[11],> 255
NCCSc1ccnc2cc(Cl)ccc12,IC50,Leishmania braziliensis,39.9 µM
same,IC50,Leishmania amazonensis [12],52.9 µM
CC(=O)N1N=C(c2cccs2)CC1c1cc(-c2ccc(C)cc2)nn1-c1ccccc1 (centres undefined),IC50,Leishmania donovani,0.16 µM
same,IC50,Leishmania aethiopica,2.24 µM
N=C(N)c1ccc2nc(-c3ccc(-c4ccc(OCCc5cn(Cc6cccc7ccccc67)nn5)cc4)s3)[nH]c2c1,IC50,Trypanosoma cruzi [6],2.14 µM
same,IC90,Trypanosoma cruzi [7],5.78 µM
Fc1ccc(-c2nnc(N/N=C/c3ccccn3)s2)cc1,selectivity ratio,[3],6
same,IC50,Trypanosoma cruzi [4],9.3 µM
